# Reference: publication PMC6162703, “Interaction of 2′R-ochratoxin A with Serum Albumins: Binding Site, Effects of Site Markers, Thermodynamics, Species Differences of Albumin-binding, and Influence of Albumin on Its Toxicity in MDCK Cells” (Toxins, 2018)
# “And” between values parts separate entries of the source, which are not always exact repeats. Identical values can stand only once.
# Assays:
# [1] = target: T1, HSA (Homo sapiens, UniProt P02768); settings: cited from earlier work
# T1 construct: purchased Sigma-Aldrich
# T1 sequence (P02768 25-609): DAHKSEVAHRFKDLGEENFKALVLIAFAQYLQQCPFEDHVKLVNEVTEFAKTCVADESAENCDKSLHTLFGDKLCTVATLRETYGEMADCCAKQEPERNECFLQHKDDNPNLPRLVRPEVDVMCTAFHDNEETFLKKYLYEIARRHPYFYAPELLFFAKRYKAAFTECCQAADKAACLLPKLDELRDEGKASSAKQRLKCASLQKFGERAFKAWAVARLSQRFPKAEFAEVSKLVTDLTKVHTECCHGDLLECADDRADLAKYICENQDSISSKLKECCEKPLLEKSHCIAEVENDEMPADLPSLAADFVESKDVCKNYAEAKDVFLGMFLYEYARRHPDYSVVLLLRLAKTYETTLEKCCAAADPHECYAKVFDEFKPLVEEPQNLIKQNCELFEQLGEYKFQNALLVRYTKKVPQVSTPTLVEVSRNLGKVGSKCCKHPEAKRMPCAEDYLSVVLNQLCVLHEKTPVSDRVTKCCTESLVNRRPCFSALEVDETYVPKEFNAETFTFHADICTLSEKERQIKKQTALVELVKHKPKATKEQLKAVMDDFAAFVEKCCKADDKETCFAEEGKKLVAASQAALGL
# [2] = target: T1, HSA; type: binding; settings: 1.0 µM 2′R-OTA, 1.5 µM HSA, site marker 0–30 µM, PBS pH 7.4
# [3] = target: rat serum albumin (RSA) (Rattus norvegicus, UniProt P02770); experiment: Fluorescence spectroscopy of 2′R-OTA/OTA-RSA complex (binding constant by Hyperquad, fluorescence enhancement); settings: for Kd: K in L/mol, PBS pH 7.4, 25 °C
# Chain of rat serum albumin (RSA) (P02770 25-608): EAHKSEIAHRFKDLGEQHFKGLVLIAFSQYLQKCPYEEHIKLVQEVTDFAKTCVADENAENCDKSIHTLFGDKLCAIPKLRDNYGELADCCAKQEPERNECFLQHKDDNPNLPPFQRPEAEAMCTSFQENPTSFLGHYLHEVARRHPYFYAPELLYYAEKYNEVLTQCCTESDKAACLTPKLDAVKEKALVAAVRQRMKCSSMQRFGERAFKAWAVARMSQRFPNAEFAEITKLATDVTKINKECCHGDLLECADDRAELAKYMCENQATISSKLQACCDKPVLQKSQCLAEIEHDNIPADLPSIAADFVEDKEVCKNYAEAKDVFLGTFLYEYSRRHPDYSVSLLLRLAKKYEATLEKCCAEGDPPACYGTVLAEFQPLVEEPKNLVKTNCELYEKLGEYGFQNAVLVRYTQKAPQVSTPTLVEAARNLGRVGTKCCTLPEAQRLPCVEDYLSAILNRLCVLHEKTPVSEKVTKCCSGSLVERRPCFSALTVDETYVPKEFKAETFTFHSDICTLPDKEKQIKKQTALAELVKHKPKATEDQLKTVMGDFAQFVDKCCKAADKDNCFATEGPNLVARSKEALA
# Method: (§1) To test this hypothesis, the fluorescence emission spectra of 2′R-OTA (Figure 7A) and OTA (Figure 7B) were recorded in the absence and presence of albumins from different species, including human (HSA), bovine (BSA), porcine (PSA), and rat (RSA) serum albumins (λex = 394 nm).
# (§2) However, excitation of the same samples at 394 nm leads to the excitation of both free and albumin-bound 2′R-OTA [23, 24]. […] Binding constants of 2′R-OTA-albumin complexes were determined by the Hyperquad program, based on the fluorescence intensities measured at 447 nm (Figure 8C,D).
# (§3) Fluorescence spectroscopic analyses, including anisotropy measurements, were carried out employing a Hitachi F-4500 fluorescence spectrophotometer. Spectroscopic measurements were performed in phosphate buffered saline (PBS, pH 7.4) at 25 °C in the presence of air. Fluorescence emission spectrum of 2′R-OTA (1 µM) was recorded in the presence of increasing concentrations of albumin (0.0, 0.1, 0.25, 0.5, 0.75, 1.0, 1.25, 1.5, 2.0, 3.0 and 5.0 µM) using 295 and 394 nm as excitation wavelengths. At 394 nm, we excited directly 2′R-OTA and its albumin complex. However, using 295 nm excitation wavelength, albumin-bound 2′R-OTA was excited as a result of the energy transfer between albumins and 2′R-OTA [23, 31].
# (§4) Binding constants (K) of mycotoxin-albumin complexes were calculated by non-linear fitting, using the Hyperquad2006 program package (Protonic Software) as described in previous studies. The stoichiometry of 2′R-OTA-albumin complexes was calculated based on the model associated with the lowest standard deviation.
# [4] = target: porcine serum albumin (PSA) (Sus scrofa, UniProt P08835); experiment: Fluorescence spectroscopy of 2′R-OTA/OTA-PSA complex (binding constant by Hyperquad, fluorescence enhancement); settings: λem = 447 nm; for Kd: K in L/mol, PBS pH 7.4, 25 °C
# Chain of porcine serum albumin (PSA) (P08835 25-607): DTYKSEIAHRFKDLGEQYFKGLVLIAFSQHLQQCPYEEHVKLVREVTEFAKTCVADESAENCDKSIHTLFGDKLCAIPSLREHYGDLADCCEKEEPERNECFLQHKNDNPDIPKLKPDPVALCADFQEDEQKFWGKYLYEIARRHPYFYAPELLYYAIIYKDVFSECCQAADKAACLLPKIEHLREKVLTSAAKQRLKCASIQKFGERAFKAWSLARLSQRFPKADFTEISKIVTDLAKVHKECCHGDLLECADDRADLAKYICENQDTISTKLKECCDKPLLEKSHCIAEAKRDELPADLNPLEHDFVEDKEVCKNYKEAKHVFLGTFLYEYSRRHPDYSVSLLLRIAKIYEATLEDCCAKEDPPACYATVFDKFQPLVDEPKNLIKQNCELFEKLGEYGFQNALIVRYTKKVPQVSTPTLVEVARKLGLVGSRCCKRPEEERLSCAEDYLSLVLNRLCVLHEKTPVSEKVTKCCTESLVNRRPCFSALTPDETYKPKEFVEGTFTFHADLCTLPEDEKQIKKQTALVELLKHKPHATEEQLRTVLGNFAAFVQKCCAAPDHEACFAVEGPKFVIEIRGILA
# Method: as §1, §2, §3, §4
# [5] = system: IHKE and HepG2 cell lines; settings: in vitro studies; cited from earlier work
# [6] = target: bovine serum albumin (BSA) (Bos taurus, UniProt P02769); experiment: Fluorescence spectroscopy of 2′R-OTA/OTA-BSA complex (binding constant by Hyperquad, fluorescence enhancement); settings: for Kd: K in L/mol, PBS pH 7.4, 25 °C
# Chain of bovine serum albumin (BSA) (P02769 25-607): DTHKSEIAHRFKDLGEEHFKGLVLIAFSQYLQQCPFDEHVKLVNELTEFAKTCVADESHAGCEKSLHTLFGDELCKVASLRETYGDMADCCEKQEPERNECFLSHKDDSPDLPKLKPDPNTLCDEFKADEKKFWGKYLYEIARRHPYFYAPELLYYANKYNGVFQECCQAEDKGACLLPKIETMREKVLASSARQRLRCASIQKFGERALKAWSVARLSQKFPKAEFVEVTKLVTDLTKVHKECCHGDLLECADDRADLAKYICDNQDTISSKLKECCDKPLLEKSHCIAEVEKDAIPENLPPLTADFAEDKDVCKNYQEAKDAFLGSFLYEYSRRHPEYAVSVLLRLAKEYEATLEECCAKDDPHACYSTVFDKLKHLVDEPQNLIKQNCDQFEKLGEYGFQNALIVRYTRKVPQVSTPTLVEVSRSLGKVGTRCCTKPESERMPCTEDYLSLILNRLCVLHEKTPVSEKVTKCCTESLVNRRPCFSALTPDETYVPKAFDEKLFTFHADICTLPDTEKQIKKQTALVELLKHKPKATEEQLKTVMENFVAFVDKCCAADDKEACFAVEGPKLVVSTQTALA
# Method: as §1, §2, §3, §4
# [7] = system: MDCK cells; type: cell-based, canine; settings: 24 h; for effect on the concentration of ATP and total protein: 0–50 µM
# Source text: Similarly to OTA, 2′R-OTA also forms very stable complexes with albumins (Table 2). Therefore, it was reasonable to hypothesize that the presence of albumin may decrease the 2′R-OTA-induced toxicity in cell experiments, due to the entrapment of the mycotoxin in the cell medium by albumin. To test the influence of albumin on the in vitro effects of ochratoxins, the acute cellular toxicity of 2′R-OTA and OTA was investigated in the absence and presence of HSA and fetal bovine serum (FBS). MDCK kidney cells were treated with the mycotoxins at increasing concentrations (0–50 µM) for 24 h with and without 10% FBS or 40 g/L HSA. Ten percent FBS is commonly used in cell culture media (it yields approximately 3.5 g/L final concentration of BSA) in cell experiments, whereas approximately 40 g/L HSA circulates in the human blood. The mycotoxin-induced loss of cell viability was evaluated based on ATP and total protein levels. […] Under the applied conditions, the presence of 10% FBS or 40 g/L HSA (without ochratoxins) had no significant effect on cell viability (data not shown). […] The weaker effect of FBS can be attributed to the lower BSA content of the cell medium (3.5 g/L BSA verses 40 g/L HSA). Since albumins form very stable complexes with both 2′R-OTA and OTA, albumin likely reduces the cellular uptake of these mycotoxins, resulting in their lower cellular toxicity.
# MDCK (Madin-Darby canine kidney epithelial cell line, ATCC: CCL-34) cell culture was maintained in DMEM with 10% FBS, penicillin (100 U/mL), and streptomycin (100 µg/mL) at 37 °C in a humidified environment (5% CO2). Cells were trypsinized and plated in 96-well sterile plastic plates (approximately 10^4 cells/well) for overnight pre-incubation. Next day, the culture medium was replaced with fresh one (with or without 10% FBS or 40 g/L HSA), then cells were treated with increasing concentrations of 2′R-OTA and/or OTA (0, 1, 5, 10, 20 and 50 µM; in 150 µL medium/well). After 24 h incubation, cell viability was evaluated based on cellular ATP and total protein levels. […]
# [8] = target: human serum albumin (HSA) (Homo sapiens, UniProt P02768); experiment: Fluorescence spectroscopy of 2′R-OTA-HSA complex (binding constant by Hyperquad, fluorescence enhancement)
# Chain of human serum albumin (HSA) (P02768 25-609): as the sequence (P02768 25-609) above
# Method: as §1, §2, §3, §4
# [9] = target: T1, HSA; experiment: Thermodynamics of 2′R-OTA-HSA complex formation (van’t Hoff, six temperatures); type: binding
# Source text: Since thermodynamic data give a deeper insight into the nature of protein-ligand interactions (including binding forces are involved in the complex formation), the binding ability of 2′R-OTA towards HSA was also examined at different temperatures. According to the van’t Hoff equation (Equation (2)), the logK values expressed as the function of the appropriate reciprocal temperatures show good linearity (Figure 6).
# For the deeper insight into 2′R-OTA-HSA interaction, binding constants of mycotoxin-albumin complexes were also determined at six different temperatures (298, 301, 304, 307, 310 and 313 K). The binding constants were determined by the Hyperquad2006 program package, using 394 and 447 nm as excitation and emission wavelengths, respectively. Thermodynamic parameters associated to the complex formation between 2′R-OTA and HSA were determined based on the van ’t Hoff equation: (2) logK=−ΔG /RT=−ΔH/2.303RT+ΔS/2.303R where ΔG, ΔH, and ΔS denote the Gibbs free energy, enthalpy, and entropy changes of the binding reaction, respectively; while R is the gas constant and T refers the temperature.
# [10] = system: MDCK cells; experiment: Co-treatment of MDCK cells with OTA and 2′R-OTA (ATP levels/well); type: cell-based, canine; settings: sub-toxic 2′R-OTA concentrations, 24 h
# Method: Since 2′R-OTA appears in the circulation together with OTA, the toxic action of OTA in the presence of increasing 2′R-OTA concentrations was also tested. Both mycotoxins occupy Site I as their primary binding sites in albumin, therefore, 2′R-OTA may able to displace OTA from HSA, resulting in the increased cellular uptake and cytotoxicity of OTA in the presence of 2′R-OTA. Because 40 g/L HSA completely abolished the acute toxic action of ochratoxins, co-treatment of MDCK cells with OTA and 2′R-OTA was investigated without albumin and in the presence of 10% FBS. ATP levels/well were quantified after 24 h incubation. […] In the presence of FBS (Figure 10B), the 2′R-OTA-induced further loss in cell viability may be partly attributed to the displacement of OTA from albumin by 2′R-OTA. […] Therefore, other toxicokinetic and/or toxicodynamic mechanism(s) may be involved. Despite its relatively lower toxicity, when simultaneously present 2′R-OTA with OTA, 2′R-OTA can increase the effect of OTA.
# MDCK (Madin-Darby canine kidney epithelial cell line, ATCC: CCL-34) cell culture was maintained in DMEM with 10% FBS, penicillin (100 U/mL), and streptomycin (100 µg/mL) at 37 °C in a humidified environment (5% CO2). […] After 24 h incubation, cell viability was evaluated based on cellular ATP and total protein levels. […]
# [11] = humans; cited from earlier work
# [12] = humans; cited from earlier work; remark: listed apart in the source
# [13] = both excitation wavelengths (295 or 394 nm)
# [14] = 1 µM mycotoxin, 5 µM albumin, PBS, λex = 394 nm
smiles,measurement,setting,value
CN(C)c1ccc(N=Nc2ccc(S(=O)(=O)[O-])cc2)cc1.[Na+] [methyl orange],affinity to HSA compared with another ligand,[1],much lower affinity to HSA than bilirubin
same,displacement of 2′R-OTA from HSA by the site marker,[2],strongly displaced
C=CC1=C(C)/C(=C/c2[nH]c(Cc3[nH]c(/C=C4\NC(=O)C(C)=C4C=C)c(C)c3CCC(=O)O)c(CCC(=O)O)c2C)NC1=O [bilirubin],displacement of 2′R-OTA from HSA by the site marker,[2],strongly displaced
C[C@H]1CCCC(=O)CCC/C=C/c2cc(O)cc(O)c2C(=O)O1 [zearalenone],binding constant K of the complex with HSA,[1],10^5 L/mol
CC1=C2C(=CO[C@H](C)[C@H]2C)C(O)=C(C(=O)O)C1=O [citrinin],binding constant K of the complex with HSA,[1],200000 L/mol
"C[C@@H]1Cc2c(Cl)cc(C(=O)N[C@H](Cc3ccccc3)C(=O)O)c(O)c2C(=O)O1 [2′R-OTA, 2′R-ochratoxin A]","I/I0 (±SD), enhancement of the fluorescence of 2′R-OTA by complex formation","[3]; RSA, λex = 394 nm, λem = 447 nm, PBS",2.22 ± 0.09
same,affinity to RSA relative to HSA and PSA,[3]; [13],2–3 times higher
same,Kd,"[3]; logK (± SD) of binding constant, RSA, λex = 295 nm, λem = 447 nm",355 nM
same,Kd,"[3]; logK (±SD) of binding constant, RSA, λex = 394 nm, λem = 447 nm",64.6 nM
same,affinity to HSA lower than that of OTA,[1],approximately tenfold
same,binding constant K of the complex with HSA,[1],~ 2 × 10^6 L/mol and 2 × 10^6 L/mol
same,binding constant of 2′R-OTA-HSA complex higher than that of aflatoxin-HSA complexes,[1],100 fold
same,Kd,"[4]; logK (± SD) of binding constant, λex = 295 nm",617 nM
same,Kd,"[4]; logK (±SD) of binding constant, λex = 394 nm",145 nM
same,"I/I0 (±SD), enhancement of the fluorescence of 2′R-OTA by complex formation","[4]; λex = 394 nm, PBS",1.98 ± 0.05
same,acute toxicity compared with OTA,[5],lower acute toxicity
same,fluorescence enhancement by BSA compared with other albumins,[6]; [14],highest emission signal
same,"I/I0 (±SD), enhancement of the fluorescence of 2′R-OTA by complex formation","[6]; BSA, λex = 394 nm, λem = 447 nm, PBS",2.48 ± 0.06
same,affinity to BSA relative to HSA and PSA,[6]; [13],2–3 times higher
same,Kd,"[6]; logK (± SD) of binding constant, BSA, λex = 295 nm, λem = 447 nm",214 nM
same,Kd,"[6]; logK (±SD) of binding constant, BSA, λex = 394 nm, λem = 447 nm",47.9 nM
same,effect on the concentration of ATP and total protein,[7],"dose-dependent, significant decreases"
same,cytotoxicity relative to OTA,[7],approximately 10 times lower
same,Kd,[8],525 nM
same,"I/I0 (±SD), enhancement of the fluorescence of 2′R-OTA by complex formation","[8]; HSA, λex = 394 nm, λem = 447 nm, PBS",2.35 ± 0.07
same,Kd at 1 µM,"[8]; human, human serum albumin (HSA) in PBS, pH 7.4",229 nM
same,ΔH of 2′R-OTA-HSA complex formation,[9]; 298-313 K,-2.02 kcal/mol
same,ΔS of 2′R-OTA-HSA complex formation,[9]; 298-313 K,102.62 J K^-1 mol^-1
same,ΔG of 2′R-OTA-HSA complex formation,[9]; 298K (room-temperature),-9.331 kcal/mol
same,effect of 2′R-OTA on the toxic effect of OTA,"[10]; absence of FBS, 1 μM OTA",increased significantly
same,effect of 2′R-OTA on the toxic effect of OTA,"[10]; presence of 10% FBS, 20 μM OTA",increased significantly
"C[C@@H]1Cc2c(Cl)cc(C(=O)N[C@@H](Cc3ccccc3)C(=O)O)c(O)c2C(=O)O1 [OTA, Ochratoxin A]",fluorescence enhancement by RSA compared with other albumins,[3]; [14],highest fluorescence
same,stability of OTA-HSA complex higher than that of the complex with bovine albumin,[1],approximately tenfold
same,stability of OTA-HSA complex higher than that of the complex with rat albumin,[1],~30 fold
same,affinity order toward albumins of different species,[1]; previous investigations,Human > bovine > porcine > rat
same,effect on the concentration of ATP and total protein,[7],"dose-dependent, significant decreases"
same,plasma elimination half-life,[11],approximately one month
same,plasma protein binding,[12],99.8%
